Data: article PMC7961996, “Small Immunomodulatory Molecules as Potential Therapeutics in Experimental Murine Models of Acute Lung Injury (ALI)/Acute Respiratory Distress Syndrome (ARDS)” (International Journal of Molecular Sciences, 2021)

What was measured:
[1] = Pharmacokinetic study, bronchoalveolar lavage fluid (BALF); format: in vivo, Sprague Dawley rats
Experimental: All PK studies were also conducted with 8–10-week-old male and female Sprague Dawley rats. An additional nine animals/sex/dose were used for PK analysis and blood (approximately 0.3 mL each) was collected from each rat on days 1 and 3 of the treatment period at time points of 5, 30, 60, 90, 120, and 180 min, and 6, 12 h, and 24 h post dose that were randomized to provide a total of three samples/sex for each time point. Samples were collected by jugular venipuncture and the samples were collected into tubes containing the anticoagulant, K3EDTA. The collection of BALF was limited to the terminal time points of 6 h, 12 h, and 24 h. AVR-48 concentrations in the blood and BALF were determined using LC/MS/MS analysis developed in house. PK parameters were estimated using Phoenix pharmacokinetic software (Certara, Princeton, NJ, USA) using a non-compartmental approach consistent with the IV bolus injection.

hPBMC = test system: hPBMC; parameters: method as in earlier work; settings: cited from earlier work
CLP-induced sepsis mice = assay: CLP-induced lung and organ injury, histopathology scoring; format: in vivo, C57BL6/J mice
Experimental: For CLP-induced lung injury, CLP was performed as previously described by us. As antibiotics are the standard of care in sepsis patients, one dose of imipenem was given SC at 5 mg/kg 30 min after the procedure, followed by two doses of AVR-48 (10 mg/kg, IV) at 16 h and 24 h following the surgery, and sacrificed after 72 h. The sham mice (controls) had the abdominal cavity opened, the cecum was not perforated, and the peritoneum was stitched back.
H&E staining was performed on 5 µm paraffin lung tissue sections following standardized methods. Four to five random images per lung and 4–5 lungs per experimental group were characterized for lung injury score analysis.
Two different scoring systems were used for lung injury scoring, as the experiments were done at different times. The LPS-/hyperoxia-induced ALI scoring was done by DS, while the CLP-induced lung and other organs’ scoring was done by two additional independent investigators (PD and BA). For the hyperoxia- and LPS-induced lung injury, scoring was done on histological sections based on neutrophil infiltration and epithelial injury using the methods as described before with modifications. Four to five random images per lung and 4–5 lungs per experimental group were characterized for lung injury score analysis. We used a 0–4 scoring system in which 0 = no infiltration/injury, 1 = minimal infiltration/injury to 25% of the field, 2 = mild infiltration/injury […] of the field, 3 = moderate infiltration/injury to 75% of the field, and 4 = severe infiltration/diffuse injury. For the CLP-induced ALI, scoring was done following the methodology as reported earlier by a qualified pathologist (BA) in masked manner. Lungs were harvested from all the mice after the endpoint, and lung injury was scored based on the criteria of alveolar damage and vascular congestion and hemorrhage. As CLP-induced sepsis also results in damage to the rest of the viscera, which can contribute to ALI/ARDS, other organs were also scored as above, to determine the recovery potential of AVR-48 as a candidate drug. The following (cells) were taken into account while scoring the injury level followed by recovery after treatment in other vital organs: heart (myocardium), kidney (glomeruli, tubules), gut (mucosal cells, enterocytes), spleen (lymphoid follicles), liver (hepatocytes), brain (neuronal damage), testis (Seminiferous tubules), and lymph nodes. The final scores were calculated on the basis of total percentage of the damaged/recovered area and by the number of areas/High power field (HPF) as reported above.

[2] = AVR-48 10 mg/kg IV x2 after CLP
[3] = after CLP, Mean ± SEM, CLP alone 4.8± 0.2

CC(=O)N[C@H]1[C@H](Oc2ccc([N+](=O)[O-])cc2)O[C@H](CO)[C@@H](O)[C@@H]1O [AVR-48, N-((2S,3R,4R,5S,6R)-4,5-dihydroxy-6-(hydroxymethyl)-2-(4-nitrophenoxy)tetrahydro-2H-pyran-3-yl) acetamide]
AVR-48 in BALF ([1]; 6 h post administration): measurable concentrations
Kp at 6 h ([1]; Sprague Dawley, rat, BALF (bronchoalveolar lavage fluid) relative to plasma, intravenous, 6 h time point, read-out: BALF-to-plasma ratio): 2.81 to 9.08
AVR-48 in BALF ([1]; by 12 h): below the limit of detection
TNF-α (hPBMC; in vitro hPBMC model): decreases TNF-α
IL-10 expression (hPBMC; with or without LPS): increased IL-10 expression
lung injury score vs CLP group (CLP-induced sepsis mice; AVR-48 10 mg/kg IV at 16 h and 24 h, sacrificed after 72 h, p < 0.001): significant recovery
appearance of the lung (histopathology) (CLP-induced sepsis mice; [2]): decreased inflammation and hemorrhage
histopathological changes in other vital organs vs CLP-only group (CLP-induced sepsis mice; [2]): dramatic improvement
Injury score: Brain, Neuronal Damage (CLP-induced sepsis mice; [3]): 3.6± 0.245
Injury score: Brain, Vascular Congestion & Hemorrhage (CLP-induced sepsis mice; [3]): 3.4± 0.245
Injury score: Gut, MVD (CLP-induced sepsis mice; [3]): 3.6± 0.245
Injury score: Gut, Vascular Congestion & Hemorrhage (CLP-induced sepsis mice; [3]): 3.6± 0.245
Injury score: Heart, Myocardial Damage (CLP-induced sepsis mice; [3]): 3.4± 0.245
Injury score: Heart, Vascular Congestion & Hemorrhage (CLP-induced sepsis mice; [3]): 3.4± 0.4
Injury score: Kidney, Glomerular Damage (CLP-induced sepsis mice; [3]): 3.6± 0.245
Injury score: Kidney, Glomerular Injury (CLP-induced sepsis mice; [3]): 3.6± 0.245
Injury score: Kidney, Vascular Congestion & Hemorrhage (CLP-induced sepsis mice; [3]): 3.6± 0.245
Injury score: Liver, Hepatocyte Injury (CLP-induced sepsis mice; [3]): 3.6± 0.245
Injury score: Liver, Vascular Congestion & Hemorrhage (CLP-induced sepsis mice; [3]): 3.6± 0.245
Injury score: Lung, Alveolar Damage (CLP-induced sepsis mice; [3]): 3.6± 0.245
Injury score: Lung, Vascular Congestion and Hemorrhage (CLP-induced sepsis mice; [3]): 3.6± 0.245
Injury score: Lymph Node, Follicular Damage (CLP-induced sepsis mice; [3]): 3.4± 0.245
Injury score: Spleen, Vascular Congestion & Hemorrhage (CLP-induced sepsis mice; [3]): 3.6± 0.245
Injury score: Testis, Tubular Damage (CLP-induced sepsis mice; [3]): 3.6± 0.245
Injury score: Testis, Vascular Congestion & Hemorrhage (CLP-induced sepsis mice; [3]): 3.6± 0.245
